The results in this text go back to the SangsterLogP compilation.

The data set is described as follows: method code SF-AS, from DOI: 10.1016/0223-5234(92)90084-e.

`Cc1nc(-c2ccc(C(C)C(=O)O)cc2Cl)sc1C` (centres undefined) gave a lipophilicity (logP) of 3.94. Turning to `CCCCc1csc(-c2ccc(C(C)C(=O)O)cc2)n1` (centres undefined), the logP amounted to 4.04.

The compound `Cc1nc(-c2ccc(C(C)C(=O)O)cc2F)sc1C` (centres undefined) gave a logP of 3.74. On to `Cc1cnc(-c2ccc(C(C)C(=O)O)cc2F)s1` (centres undefined), for which the logP worked out at 3.55. This logP and that of the compound before are within 0.2 log units of each other. On the same count and under the same terms, then `Cc1cnc(-c2ccc(C(C)C(=O)O)cc2Cl)s1` (centres undefined), with 3.66; and `Cc1nc(-c2ccc(C(C)C(=O)O)cc2)sc1C` (centres undefined), with 3.36. The same measure, in the same setting: the same measure for `CC(C(=O)O)c1ccc(-c2nccs2)c([N+](=O)[O-])c1` (centres undefined): 2.06; for `CCc1nc(-c2ccc(C(C)C(=O)O)cc2)sc1C` (centres undefined): 3.99. For the setting “pH 3.4”, `CC(C(=O)O)c1ccc(-c2nccs2)c(N)c1` (centres undefined) came in with a logD of 2.45. Regarding `Cc1csc(-c2ccc(C(C)C(=O)O)cc2)n1` (centres undefined), the logP was found to be 3.03. On to `CC(C(=O)O)c1ccc(-c2nc(-c3ccccc3)cs2)cc1` (centres undefined), for which the logD (pH 2.0) amounted to 4.81. Consider `CC(C)c1csc(-c2ccc(C(C)C(=O)O)cc2F)n1` (centres undefined), for which, where the note is “pH 2.0”, the pH-dependent lipophilicity (logD) came to 4.04. `CCc1cnc(-c2ccc(C(C)C(=O)O)cc2F)s1` (centres undefined) registered a logP of 4.1. Still for that read-out and setting: then `CCc1csc(-c2ccc(C(C)C(=O)O)cc2)n1` (centres undefined), with 3.75. For `C=Cc1csc(-c2ccc(C(C)C(=O)O)cc2)n1` (centres undefined), the pH-dependent lipophilicity (logD) (pH 2.0) stood at 3.54.

In turn, `CC(C(=O)O)c1ccc(-c2nccs2)c(F)c1` (centres undefined) yielded a logP of 3.14. Regarding `Cc1csc(-c2ccc(C(C)C(=O)O)cc2Cl)n1` (centres undefined), the logP was 3.65. `CC(C(=O)O)c1ccc(-c2nc(C(F)(F)F)cs2)cc1` (centres undefined): under “pH 2.0”, the logD stood at 3.78. The same measure, in the same setting: the same measure for `CC(=O)c1csc(-c2ccc(C(C)C(=O)O)cc2)n1` (centres undefined): 2.65; for `C=CCc1csc(-c2ccc(C(C)C(=O)O)cc2)n1` (centres undefined): 3.4. With `CCCCc1csc(-c2ccc(C(C)C(=O)O)cc2F)n1` (centres undefined), the logP was found to be 4.66. For the compound `CC(C(=O)O)c1ccc(-c2nc(C(N)=O)cs2)cc1` (centres undefined), under “pH 2.0”, the logD came out at 2.17.

`CC(C(=O)O)c1ccc(-c2nc(C(=O)N(C)C)cs2)cc1` (centres undefined) had a logD (pH 2.0) of 2.15. The same measure, in the same setting: then `CCc1csc(-c2ccc(C(C)C(=O)O)cc2F)n1` (centres undefined), with 3.58.

In turn, `CCCCc1csc(-c2ccc(C(C)C(=O)O)cc2Cl)n1` (centres undefined) gave a logP of 4.84.

`CNC(=O)c1csc(-c2ccc(C(C)C(=O)O)cc2)n1` (centres undefined) yielded a logD (pH 2.0) of 2.45.

Compound `COc1cc(C(C)C(=O)O)ccc1-c1nccs1` (centres undefined) showed a logP of 2.47.

`CC(C(=O)O)c1ccc(-c2nc3c(s2)CCCC3)cc1` (centres undefined) returned a logP of 4.41. Still for that read-out and setting: the same measure for `CCc1cnc(-c2ccc(C(C)C(=O)O)cc2Cl)s1` (centres undefined): 4.39; for `CC(C(=O)O)c1ccc(-c2nccs2)c(Cl)c1` (centres undefined): 3.39. The same measure, in the same setting: then `CC(C(=O)O)c1ccc(-c2nc(CO)cs2)cc1` (centres undefined), with 2.25; and `Cc1csc(-c2ccc(C(C)C(=O)O)cc2F)n1` (centres undefined), with 3.52. On the same count and under the same terms, the same measure for `COCc1csc(-c2ccc(C(C)C(=O)O)cc2)n1` (centres undefined): 2.78. Regarding `CC(C)c1csc(-c2ccc(C(C)C(=O)O)cc2Cl)n1` (centres undefined), the logD (pH 2.0) is 4.26.

The term logP denotes a log measure of how a compound divides between an organic and an aqueous phase. The low end stands for a more hydrophilic compound, the high end for a more lipophilic compound. By logD is commonly meant lipophilicity at a set pH, counting ionised and neutral species. Low values mean lower lipophilicity, high ones higher lipophilicity.
